Laboratory results published in PMC3367765 (Pflugers Archiv, 2012).
Like-named read-outs stand apart in the source and are kept apart here.

B1: GST-C60 protein expressed from pDEST-26 vector (domain or fragment, rat, UniProt P19024 543-602, looked up)
chain: RKVSCSKASFCKTGGSLESSDSIRRGSCPLEKCHLKAKSNVDLRRSLYALCLDTSRETDL

Tests used:
Kvβ3 = biological target: T1, Kvβ3 (Mus musculus, UniProt F6YMI4); assay: fluorescence titration; assay type: binding
T1 sequence (F6YMI4 1-404): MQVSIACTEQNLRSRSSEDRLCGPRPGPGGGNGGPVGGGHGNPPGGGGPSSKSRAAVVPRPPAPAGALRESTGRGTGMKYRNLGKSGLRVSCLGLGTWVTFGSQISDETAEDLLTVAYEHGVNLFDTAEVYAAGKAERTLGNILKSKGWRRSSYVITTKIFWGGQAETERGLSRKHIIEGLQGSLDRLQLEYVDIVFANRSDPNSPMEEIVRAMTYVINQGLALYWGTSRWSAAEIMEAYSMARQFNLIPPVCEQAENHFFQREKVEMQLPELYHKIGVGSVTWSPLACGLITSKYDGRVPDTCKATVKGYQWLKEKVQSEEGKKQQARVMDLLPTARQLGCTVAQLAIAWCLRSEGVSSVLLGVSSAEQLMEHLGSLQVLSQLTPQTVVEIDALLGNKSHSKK

[1] = biological target: T2, Kvβ2 (AKR part, amino acid residues 39-367) (UniProt P62483 39-367); assay: pull-down
T2 sequence (looked up): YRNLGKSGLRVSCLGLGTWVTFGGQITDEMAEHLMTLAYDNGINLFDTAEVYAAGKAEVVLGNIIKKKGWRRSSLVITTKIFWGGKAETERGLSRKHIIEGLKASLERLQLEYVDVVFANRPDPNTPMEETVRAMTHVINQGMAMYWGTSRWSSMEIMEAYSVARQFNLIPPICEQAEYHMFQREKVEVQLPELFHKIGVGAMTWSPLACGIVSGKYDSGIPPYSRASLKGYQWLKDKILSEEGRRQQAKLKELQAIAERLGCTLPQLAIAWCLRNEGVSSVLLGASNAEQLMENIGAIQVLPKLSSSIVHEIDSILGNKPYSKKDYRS

[2] = biological target: T2, Kvβ2 (AKR part, amino acid residues …); assay: pull-down; remark: listed apart in the source

Row | Molecule | Kd (Kvβ3) [µM] | Kd [1] [µM] | Kd [2] [µM]
1 | NC(=O)C1=CN([C@@H]2O[C@H](COP(=O)(O)OP(=O)(O)OC[C@H]3O[C@@H](n4cnc5c(N)ncnc54)[C@H](OP(=O)(O)O)[C@@H]3O)[C@@H](O)[C@H]2O)C=CC1 [NADPH] | 5.6 ± 0.26 |  | 
2 | NC(=O)c1ccc[n+]([C@@H]2O[C@H](COP(=O)(O)OP(=O)(O)OC[C@H]3O[C@@H](n4cnc5c(N)ncnc54)[C@H](OP(=O)(O)O)[C@@H]3O)[C@@H](O)[C@H]2O)c1 [NADP^+] | 38 ± 9 |  | 
3 | B1 |  | 5.2 ± 0.8 | 9.9 ± 1.7
